Laboratory results: patent US10513521B2, “Compositions and methods for inhibiting BMP” (The Brigham and Women's Hospital, Inc., priority 2014, dated 2019)
Where “and” joins values, the source holds several entries; their conditions need not be identical. Equal entries are not always repeated. Where two headings read alike, the source gives them in different places.

Legend:
[1] = test system: BMP4; test: BMP4 HTRF assay; assay type: cell-based
[2] = target: T1, ALK2 (Mus musculus, UniProt P37172); test: HTRF pSMAD1 cell-based ALK2 assay (C2C12 cells, BMP6 as agonist)
T1 construct: The C2C12 cell line was selected for the measurement of ALK2 activity using BMP6 as the agonist; host or cells: C2C12
T1 sequence (P37172 21-509): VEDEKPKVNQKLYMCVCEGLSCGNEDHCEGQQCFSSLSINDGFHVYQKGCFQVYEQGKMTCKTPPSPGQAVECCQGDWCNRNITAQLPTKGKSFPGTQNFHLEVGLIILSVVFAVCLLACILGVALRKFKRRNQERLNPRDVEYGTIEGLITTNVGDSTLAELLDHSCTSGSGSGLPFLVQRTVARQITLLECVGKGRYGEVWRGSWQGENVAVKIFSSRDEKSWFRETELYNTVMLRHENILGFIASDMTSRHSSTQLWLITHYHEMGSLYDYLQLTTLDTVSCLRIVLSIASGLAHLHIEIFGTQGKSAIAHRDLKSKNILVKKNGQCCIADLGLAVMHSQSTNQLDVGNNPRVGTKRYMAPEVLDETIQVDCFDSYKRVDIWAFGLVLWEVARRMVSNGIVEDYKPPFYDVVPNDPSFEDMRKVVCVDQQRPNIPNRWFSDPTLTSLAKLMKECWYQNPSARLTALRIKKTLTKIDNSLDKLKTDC
In short: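 Cells pre-starved, plated in 0.1% FBS medium for 4 h, compound added for 30 min, then stimulated 30 min with BMP9 (BAOEC) or BMP6 (C2C12). Phospho-SMAD1 measured by HTRF after overnight room-temperature detection incubation.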

[3] = target: T2, ALK5 (Homo sapiens, UniProt P36897); test: TR-FRET enzymatic ALK kinase assay, ALK5
T2 sequence (P36897 34-503): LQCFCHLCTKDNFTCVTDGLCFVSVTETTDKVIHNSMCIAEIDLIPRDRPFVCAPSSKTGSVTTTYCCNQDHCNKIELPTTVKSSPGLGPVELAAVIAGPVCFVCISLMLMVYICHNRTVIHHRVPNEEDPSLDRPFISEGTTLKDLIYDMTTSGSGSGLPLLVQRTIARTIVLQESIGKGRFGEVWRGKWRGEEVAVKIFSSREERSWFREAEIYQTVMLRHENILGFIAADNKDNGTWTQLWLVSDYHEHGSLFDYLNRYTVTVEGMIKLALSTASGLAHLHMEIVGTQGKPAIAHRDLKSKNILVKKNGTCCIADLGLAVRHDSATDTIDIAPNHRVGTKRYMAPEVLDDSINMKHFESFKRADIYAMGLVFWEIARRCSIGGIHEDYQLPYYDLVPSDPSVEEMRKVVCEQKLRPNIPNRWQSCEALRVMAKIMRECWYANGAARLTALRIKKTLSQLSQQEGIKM
Procedure: Six ALK kinase enzyme assays were developed for determination of compound activities on ALK1, ALK2, ALK3, ALK4, ALK5 and ALK6.
Briefly, the ALKs enzymatic assay was initiated by dispense 2.5 μl enzyme in 1× kinase reaction buffer. The assay plate was then added with compounds followed by incubation at room temperature for 10 minutes. Then 2.5 μl/well substrate was added.

[4] = target: T3, ALK1 (Bos taurus, UniProt A4FUX2); test: HTRF pSMAD1 cell-based ALK1 assay (BAOEC cells, BMP9 as agonist); design: species or system Bovine
T3 construct: The BAOEC cell line was employed for the measurement of ALK1 activity using BMP9 as the agonist; host or cells: BAOEC (bovine aortic endothelial cells)
T3 sequence (A4FUX2 23-503): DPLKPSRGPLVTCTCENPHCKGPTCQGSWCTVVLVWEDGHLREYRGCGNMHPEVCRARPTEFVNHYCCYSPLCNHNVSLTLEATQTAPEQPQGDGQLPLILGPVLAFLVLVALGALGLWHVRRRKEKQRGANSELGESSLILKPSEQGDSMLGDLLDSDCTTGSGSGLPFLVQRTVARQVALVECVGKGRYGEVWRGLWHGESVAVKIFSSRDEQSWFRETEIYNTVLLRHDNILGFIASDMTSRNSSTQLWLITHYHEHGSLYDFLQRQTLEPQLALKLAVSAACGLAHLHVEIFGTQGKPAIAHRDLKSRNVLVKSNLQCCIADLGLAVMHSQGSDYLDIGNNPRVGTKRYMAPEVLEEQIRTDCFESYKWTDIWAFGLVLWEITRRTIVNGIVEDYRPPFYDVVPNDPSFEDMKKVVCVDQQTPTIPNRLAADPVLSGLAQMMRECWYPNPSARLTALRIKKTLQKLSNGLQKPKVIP
Procedure: 2. HTRF Cell-Based ALK1 and ALK2 Assays in 384-Well Plate Format We have developed a cell based ALK1 kinase assay and a cell-based ALK2 assay. The BAOEC cell line was employed for the measurement of ALK1 activity using BMP9 as the agonist. The C2C12 cell line was selected for the measurement of ALK2 activity using BMP6 as the agonist. The kinase specificity was defined by the specific cell line and agonist. The kinase activity was determined by the status of SMD 1/5/8 phosphorylation stimulated by the agonist.
HyClone Fetal Bovine Serum was obtained from GE healthcare life sciences (Logan, Utah). BMP6 and BMP9 were purchased from R&D System. […] The compound plates and the white solid MB assay plates were purchased from Greiner Bio-one (Monroe, N.C.).
HTRF optimization experiments were performed in 384 well plate format. […] Pre-starved cells were then plated in 384 well plate in the starvation medium (containing in 0.1% FBS). After 4 hours, compounds were added to the assay plate and incubated for 30 minutes. The assay plate was then added with BMP6 for C2C12 cells or BMP9 for BAOEC cells and incubated for 30 minutes.
HTRF assay was performed to measure the status of SMAD 1 phosphorylation after stimulated with the agonist (Table 3). This HTRF phospho SMAD1 cell assay was developed and optimized for the homogenous detection of phospho SMAD 1 levels in cells. […] The plate was incubated at room temperature for overnight.

[5] = HTRF assay, BMP6 as agonist, C2C12 cells, read-out: BMP6 HTRF
[6] = cell-based assay, BMP6, read-out: Cell IC50 BMP6

Row | Structure (SMILES) | IC50 [1] | IC50 [2, 5] | IC50 [2, 6] | IC50 [3] | IC50 [4]
1 | C[C@@H]1CNC[C@H](C)N1c1ccc(-c2cnc3c(-c4cccc5c(C(N)=O)cccc45)cnn3c2)cc1 [Compound 10, 5-(6-(4-((2S,6R)-2,6-dimethylpiperazin-1-yl)phenyl)pyrazolo[1,5-a]pyrimidin-3-yl)-1-naphthamide] | 140 nM | 19 nM | 4 nM | 9290 nM | 44 nM and 20 nM
2 | N/C(=N/O)c1ccc(-c2cnn3cc(-c4ccc(N5CCNCC5)cc4)cnc23)c2ccccc12 [Compound 15, N′-hydroxy-4-(6-(4-(piperazin-1-yl)phenyl)pyrazolo[1,5-a]pyrimidin-3-yl)-1-naphthimidamide] |  |  | 170 nM | 17500 nM | 
3 | CC(C)(CN1CCCCC1)Oc1ccc(-c2cnc3c(-c4cccc5c(C(N)=O)cccc45)cnn3c2)cc1 [Compound 18, 5-(6-(4-((2-methyl-1-(piperidin-1-yl)propan-2-yl)oxy)phenyl)pyrazolo[1,5-a]pyrimidin-3-yl)-1-naphthamide] |  |  | 11 nM | 13500 nM | 
4 | NS(=O)(=O)c1ccc(-c2cnn3cc(-c4ccc(CCN5CCCCC5)cc4)cnc23)c2ccccc12 [Compound 54, 4-(6-(4-(2-(piperidin-1-yl)ethyl)phenyl)pyrazolo[1,5-a]pyrimidin-3-yl)naphthalene-1-sulfonamide] |  |  | 160 nM | > 10000 nM | 
5 | C[S+](=O)([O-])c1cccc(-c2cnn3cc(-c4ccc(OC5(CN6CCCCC6)COC5)cc4)cnc23)c1 [Compound 93, 3-(3-(methylsulfonyl)phenyl)-6-(4-((3-(piperidin-1-ylmethyl)oxetan-3-yl)oxy)phenyl)pyrazolo[1,5-a]pyrimidine] | 100 nM | 230 nM | 11 nM | > 10000 nM | 180 nM
6 | CS(=O)(=O)c1cccc(-c2cnn3cc(-c4ccc(OCCN5CCCC5)cc4)cnc23)c1 [Compound 108, 3-(3-(methylsulfonyl)phenyl)-6-(4-(2-(pyrrolidin-1-yl)ethoxy)phenyl)pyrazolo[1,5-a]pyrimidine] |  |  | 185 nM | > 10000 nM | 
7 | C[S+](=O)([O-])c1cccc(-c2cnn3cc(-c4ccc(OCCN5CCCCC5)cc4)cnc23)c1 [Compound 109] |  |  | 2 nM | > 10000 nM | 
8 | CC(C)S(=O)(=O)c1cccc(-c2cnn3cc(-c4ccc(CCN5CCCCC5)cc4)cnc23)c1 [Compound 113, 3-(3-(isopropylsulfonyl)phenyl)-6-(4-(2-(piperidin-1-yl)ethyl)phenyl)pyrazolo[1,5-a]pyrimidine] |  |  | 4.6 nM | > 10000 nM | 
9 | CC1(c2ccc(-c3cnc4c(-c5cccc(S(C)(=O)=O)c5)cnn4c3)cc2)CCNCC1 [Compound 115, 6-(4-(4-methylpiperidin-4-yl)phenyl)-3-(3-(methylsulfonyl)phenyl)pyrazolo[1,5-a]pyrimidine] |  |  | 11 nM | > 10000 nM | 
10 | CS(=O)(=O)c1cccc(-c2cnn3cc(-c4ccc(CN5CCCCC5)cc4)cnc23)c1 [Compound 123, 3-(3-(methylsulfonyl)phenyl)-6-(4-(piperidin-1-ylmethyl)phenyl)pyrazolo[1,5-a]pyrimidine] |  | 150 nM and 130 nM | 2.4 nM | > 10000 nM | 
11 | CC(O)c1cccc(-c2cnn3cc(-c4ccc(OC5(CN6CCCCC6)CC5)cc4)cnc23)c1 (stereo not drawn) [Compound 143, 1-(3-(6-(4-(1-(piperidin-1-ylmethyl)cyclopropoxy)phenyl)pyrazolo[1,5-a]pyrimidin-3-yl)phenyl)ethanol] |  | 230 nM |  | > 10000 nM | 

Now from value to molecule:

Row | IC50 [1] | IC50 [2, 5] | IC50 [2, 6] | IC50 [3] | IC50 [4] | Structure (SMILES)
12 | 180 nM | 308 nM | 1 nM | > 10000 nM | 190 nM | C[C@@H]1CNC[C@H](C)N1c1ccc(-c2cnc3c(-c4cccc(S(C)(=O)=O)c4)cnn3c2)cc1 [Compound 82, 6-(4-((2R,6S)-2,6-dimethylpiperazin-1-yl)phenyl)-3-(3-(methylsulfonyl)phenyl)pyrazolo[1,5-a]pyrimidine]
13 |  |  | 35 nM | > 10000 nM | 100 nM | CC(O)c1cccc(-c2cnn3cc(-c4ccc(N5[C@H](C)CNC[C@@H]5C)cc4)cnc23)c1 (stereo partly drawn) [Compound 83, 1-(3-(6-(4-((2R,6S)-2,6-dimethylpiperazin-1-yl)phenyl)pyrazolo[5-a]pyrimidin-3-yl)phenyl)ethanol]
14 | 130 nM | 260 nM | 18 nM | > 10000 nM | 14 nM | C[C@@H]1CNC[C@H](C)N1c1ccc(-c2cnc3c(-c4cccc(C(C)(C)O)c4)cnn3c2)cc1 [Compound 103, 2-(3-(6-(4-((2R,6S)-2,6-dimethylpiperazin-1-yl)phenyl)pyrazolo[1,5-a]pyrimidin-3-yl)phenyl)propan-2-ol]
15 | 230 nM | 170 nM | 1.3 nM | > 10000 nM | 71 nM | CC[S+](=O)([O-])c1cccc(-c2cnn3cc(-c4ccc(N5[C@H](C)CNC[C@@H]5C)cc4)cnc23)c1 [Compound 104, 6-(4-((2R,6S)-2,6-dimethylpiperazin-1-yl)phenyl)-3-(3-(ethylsulfonyl)phenyl)pyrazolo[1,5-a]pyrimidine]
16 |  |  | < 1 nM | > 10000 nM | 850 nM | C[C@@H]1CNC[C@H](C)N1c1ccc(-c2cnc3c(-c4cccc([S+](=O)([O-])C5CC5)c4)cnn3c2)cc1 [Compound 111, 3-(3-(cyclopropylsulfonyl)phenyl)-6-(4-((2R,6S)-2,6-dimethylpiperazin-1-yl)phenyl)pyrazolo[1,5-a]pyrimidine]
17 |  |  | < 1 nM | > 10000 nM |  | CC(C)S(=O)(=O)c1cccc(-c2cnn3cc(-c4ccc(N5[C@H](C)CNC[C@@H]5C)cc4)cnc23)c1 [Compound 114, 6-(4-((2R,6S)-2,6-dimethylpiperazin-1-yl)phenyl)-3-(3-(isopropylsulfonyl)phenyl)pyrazolo[1,5-a]pyrimidine]
18 |  |  | 66 nM | > 10000 nM |  | C[C@@H]1CNC[C@H](C)N1c1ccc(-c2cnc3c(-c4cccc(C[S+](C)(=O)[O-])c4)cnn3c2)cc1 [Compound 117, 6-(4-((2R,6S)-2,6-dimethylpiperazin-1-yl)phenyl)-3-(3-((methylsulfonyl)methyl)phenyl)pyrazolo[1,5-a]pyrimidine]
